Assay results from US12109207B2, “Methods of using 4(1H)-quinolone derivatives” (Academia Sinica, priority 2019, dated 2024).

Legend:
OECM1 = assay: Cell cytotoxicity assay (MTS), OECM1; format: cell-based; settings: Homo sapiens
Description: (§1) Cells were seeded into the wells of 96-well plates (2000 cells/well). After an overnight culture, the cells were treated with different concentrations of a compound for 72 h. The CellTiter 96 AQueous one-solution cell proliferation assay (MTS) reagent was used to determine cytotoxicity. After treatment with a compound, 20 μL of the MTS reagent was added to each well and the plates were incubated at 37° C. for 1-4 h. Next, the absorbance at 490 nm of the culture medium in each well was determined using a VersaMax microplate reader (Molecular Devices).

[1] = molecular target: T1, purified centrosomes and tubulin (Sus scrofa, UniProt P02554); assay: In vitro microtubule nucleation assay; format: biochemical, porcine
T1 construct: purchased Cytoskeleton
Description: Purified centrosomes were incubated with or without AS1712 and with porcine tubulin (Cytoskeleton) in 80 mM PIPES, 1 mM MgCl2, 1 mM EGTA, and 1 mM GTP, pH 6.8 for 8 min at 37° C. Microtubule asters were fixed in 1% glutaraldehyde, sedimented onto acid-treated coverslips, and finally subjected to immunofluorescence with anti-α-tubulin. The fiber lengths of the microtubule asters were measured using MetaMorph image analysis software (n=20/group).

tubulin = tubulin (Sus scrofa, UniProt P02554); assay: Binding affinity assay (surface plasmon resonance); settings: steady-state model, 25° C.; read-out: dissociation constant (KD) for the tubulin-AS1712 complex
Description: Surface plasmon resonance technology was used to analyze the binding affinity of AS1712 for tubulin. A Series S Sensor Chip SA was conditioned with three consecutive 1-min injections of 1 M NaCl in 50 mM NaOH, and then 50 μg/mL biotin-tubulin (Cytoskeleton) was immobilized onto the sensor chip surface in a Biacore T200 system (GE Healthcare) to attain 3,000 resonance units. One flow cell on the chip was left free to serve as the negative control. Biocytin (Sigma Aldrich) was used to block any remaining unmodified streptavidin sites. Different concentrations of AS1712 in 10 mM HEPES, 150 mM NaCl, 3 mMEDTA, and 0.05% surfactant P20, pH 7.4 were separately injected over the sensor chip surface to measure the association and dissociation of AS1712 and tubulin at 25° C. The value of KD was calculated using the steady-state fitting mode in Biacore T200 Evaluation Software.

[2] = Body mass and serum biochemical markers, H1975 xenograft mice; format: in vivo, BALB/c nude mice; settings: for ALT (IU/L) / AST(IU/L) / BUN / Cre: day 25, mean ± SEM
Description: Using the H1975, MDA-MB-231, and KBtax xenograft models, tumors were established after inoculation into the right flanks of 6-week-old BALB/c nude mice (NARLabs, Taipei, Taiwan). After establishment of the tumors, vehicle and test compounds, which had been dissolved in DMSO, were each injected intraperitoneally into a separate group of animals three times per week. The body mass of each animal and tumor volumes were measured before each drug delivery. Tumor volume was calculated as 0.5W^2L (with W being the width of the smaller diameter and L being the length of the larger diameter). The animal experiment was carried out in accordance with the procedures and guidelines of the Institutional Animal Care and Use Committee, Institute of Biomedical Sciences, Academia Sinica.

CL1-0 and H1975 cells = assay: Colony formation assay; format: cell-based, human; settings: 12.5-200 nM, 14 days
Description: Cells were seeded into the wells of six-well plates (1000 cells/well). After overnight culture, the cells were treated with various concentrations of AS1712 for 2 weeks. Then, the colonies in each well were fixed with 3.7% paraformaldehyde, stained with 0.04% crystal violet, and dissolved in 1 ml DMSO. The absorbance at 590 nm of each DMSO solution was read using the VersaMax microplate reader.

[3] = test system: A549, CL1-0, PC9, and H1975; assay: MTS assay, non-small cell lung cancer cell lines; format: cell-based; settings: Homo sapiens; A549, CL1-0, PC9, H1975; 72 h MTS; read-out: IC50 values for the affected cell lines
Description: as §1

CCRF-CEM = assay: Cell cytotoxicity assay (MTS), CCRF-CEM; format: cell-based; settings: Homo sapiens
Outline: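 Cells seeded at 2000 cells/well, cultured overnight, then exposed to a range of compound concentrations for 72 h. Viability was read by MTS reagent, incubated 1-4 h at 37° C, with absorbance measured at 490 nm.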

[4] = test system: human fibroblast (HFB) cells; assay: Cell cytotoxicity assay (MTS), human fibroblast; format: cell-based; settings: normal cell line HFB
Description: as §1

Molt4 = assay: Cell cytotoxicity assay (MTS), Molt4; format: cell-based; settings: Homo sapiens, MOLT-4
Description: as §1

SAS = assay: Cell cytotoxicity assay (MTS), SAS; format: cell-based; settings: Homo sapiens
Description: as §1

37T = assay: Cell cytotoxicity assay (MTS), 37T; format: cell-based; settings: Homo sapiens, 72 h
Description: as §1

Colon205 = assay: Cell cytotoxicity assay (MTS), Colon205; format: cell-based; settings: Homo sapiens
Description: as §1

HFB cells = assay: Pro-apoptotic protein immunoblotting, HFB; format: cell-based, human; settings: 24 to 72 h, normal HFB cells
Description: The cells were harvested and lysed in RIPA buffer (20 mM Tris-HCl, 150 mM NaCl, 1 mM Na2EDTA, 1% sodium deoxycholate, 1% IGEPAL CA-630, 0.1% SDS, pH 7.5) with protease inhibitors (Roche). Protein concentration was measured by the BCA assay. For immunoprecipitation, protein extracts were incubated with mag-beads-AS1712 or mag-beads-control at 4° C. overnight and then washed five times with PBS before immunoblotting. For immunoblotting, equivalent amounts of denatured proteins were separated through SDS-PAGE gels and then transferred to PVDF membranes (Millipore), which were each blocked with 5% nonfat milk in PBS and 0.1% Tween-20 (Sigma Aldrich) for 1 h. Then each membrane was incubated with a primary antibody overnight at 4° C., followed by incubation with a horseradish peroxidase conjugated secondary antibody for 1 h at room temperature. The signal was visualized by enhanced chemiluminescence detection, and images were acquired using a BioSpectrum Imaging System (UVP).

82T = assay: Cell cytotoxicity assay (MTS), 82T; format: cell-based; settings: Homo sapiens, 72 h
Description: as §1

[5] = molecular target: colchicine site of tubulin (Sus scrofa, UniProt P02554); assay: Colchicine competition assay; format: binding; settings: 37° C. for 1 h
Description: Tubulin ([…]) and colchicine ([…]) were incubated with the various concentrations of AS1712, nocodazole, or vincristine in 80 mM PIPES, 2 mM MgCl2, 0.5 mM EGTA, pH 6.9 at 37° C. for 1 h. Fluorescence intensities (excitation and emission wavelengths at 365 and 435 nm, respectively) were recorded using an Infinite M200 plate reader (Tecan). Fluorescence values were normalized to the DMSO control.

[6] = test system: normal bronchial epithelial (NBE) cells; assay: Cell cytotoxicity assay (MTS), normal bronchial epithelial cells; format: cell-based; settings: Homo sapiens, normal cell line NBE (printed NEB in Table 2)
Description: as §1

Ovcar-3 = assay: Cell cytotoxicity assay (MTS), Ovcar-3; format: cell-based; settings: Homo sapiens
Description: as §1

With `CCOC(=O)c1ccc2[nH]c(-c3ccccc3)cc(=O)c2c1` [AS1712, Ethyl 4-oxo-2-phenyl-1,4-dihydroquinoline-6-carboxylate] the IC50 (OECM1) was 52 ± 1.94 nM, the “formation of microtubule asters from the centrosome” value [1] was “substantially inhibited” and the Kd (tubulin) was 13800 nM. The “ALT (IU/L)” value ([2]; 4 mg/kg) was 40.8 ± 11 IU/L, the “AST(IU/L)” value ([2]; 4 mg/kg) was 138.7 ± 58.6 IU/L and the “BUN” value ([2]; 4 mg/kg) was 23.2 ± 2.5 mg/dL. The “Cre” value ([2]; 4 mg/kg) was 0.26 ± 0.05 mg/dL, the “ALT (IU/L)” value ([2]; 8 mg/kg) was 54.2 ± 16 IU/L and the “AST(IU/L)” value ([2]; 8 mg/kg) was 170.8 ± 44.5 IU/L. For the same molecule, the “BUN” value ([2]; 8 mg/kg) was 20.9 ± 1.5 mg/dL, the “Cre” value ([2]; 8 mg/kg) was 0.17 ± 0.02 mg/dL and the body mass ([2]; 4 or 8 mg/kg i.p. three times a week, end of experiment) was “non-toxic affected”. For the same molecule, the colony-forming abilities (CL1-0 and H1975 cells) was “suppressed in a dose-dependent manner”, the IC50 [3] was 16 to 33 nM and the IC50 (CCRF-CEM) was 45 ± 0.45 nM. It also gave an IC50 [4] of over 10000 nM, an IC50 (Molt4) of 38 ± 1.03 nM and an IC50 (SAS) of 78 ± 10.4 nM. For the same molecule, the IC50 (37T) was 34 ± 2.99 nM, the IC50 (Colon205) was 57 ± 5.17 nM and the “PARP and caspase-3” value (HFB cells) was “not affected”. The IC50 (82T) was 35 ± 0.67 nM, the colchicine fluorescence [5] was “decreased the colchicine fluorescence in a dose-dependent manner” and the IC50 [6] was over 10000 nM. The IC50 (Ovcar-3) was 28 ± 1.08 nM.
